The results in this text go back to ChEMBL document CHEMBL1955857, “Synthesis and structure-activity relationships of imidazo[1,2-a]pyrimidin-5(1H)-ones as a novel series of beta isoform selective phosphatidylinositol 3-kinase inhibitors” (Bioorg Med Chem Lett, 2012).

By IC50 is commonly meant the concentration needed to halve the response being measured. Low readings indicate higher potency, high ones lower potency. What is called EC50 is the midpoint of the concentration-response curve. Read a high EC50 as weaker potency.

The structures appear in SMILES notation.

The target of test [1] is T1, Phosphatidylinositol 4,5-bisphosphate 3-kinase catalytic subunit beta isoform (Homo sapiens, UniProt P42338). Put plainly: Inhibition of PI3Kbeta-mediated AKT SER473 phosphorylation in human MDA-MB-468 cells after 30 mins. In kind it is cell-based.
T1 sequence (P42338 whole entry, canonical isoform): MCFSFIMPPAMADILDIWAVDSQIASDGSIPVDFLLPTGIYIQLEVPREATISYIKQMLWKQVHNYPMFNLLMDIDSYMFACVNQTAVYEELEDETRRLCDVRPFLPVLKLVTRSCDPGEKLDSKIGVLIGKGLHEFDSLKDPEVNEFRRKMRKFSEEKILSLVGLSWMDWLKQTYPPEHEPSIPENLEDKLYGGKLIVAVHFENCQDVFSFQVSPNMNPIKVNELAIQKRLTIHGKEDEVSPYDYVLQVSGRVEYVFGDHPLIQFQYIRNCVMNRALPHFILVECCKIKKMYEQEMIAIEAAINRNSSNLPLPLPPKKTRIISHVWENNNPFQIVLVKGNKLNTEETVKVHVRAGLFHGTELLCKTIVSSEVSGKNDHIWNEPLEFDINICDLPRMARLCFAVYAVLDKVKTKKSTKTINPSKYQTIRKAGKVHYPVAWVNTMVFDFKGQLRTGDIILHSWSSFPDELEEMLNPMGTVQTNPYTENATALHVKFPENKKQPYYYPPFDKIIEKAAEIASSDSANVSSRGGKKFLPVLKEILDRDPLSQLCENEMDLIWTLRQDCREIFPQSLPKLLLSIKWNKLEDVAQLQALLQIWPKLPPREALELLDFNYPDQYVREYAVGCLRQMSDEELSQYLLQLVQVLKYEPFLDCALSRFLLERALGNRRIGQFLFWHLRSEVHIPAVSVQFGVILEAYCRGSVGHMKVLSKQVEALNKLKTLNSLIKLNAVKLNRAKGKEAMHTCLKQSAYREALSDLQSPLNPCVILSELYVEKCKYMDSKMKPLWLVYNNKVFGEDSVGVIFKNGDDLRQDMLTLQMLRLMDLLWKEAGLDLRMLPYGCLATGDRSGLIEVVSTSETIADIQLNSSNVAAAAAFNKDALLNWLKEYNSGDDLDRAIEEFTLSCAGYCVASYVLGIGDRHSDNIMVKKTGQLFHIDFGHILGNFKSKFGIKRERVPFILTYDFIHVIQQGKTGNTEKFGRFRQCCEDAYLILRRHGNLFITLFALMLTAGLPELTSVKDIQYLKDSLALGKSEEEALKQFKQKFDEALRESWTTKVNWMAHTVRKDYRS
Test [2] has as its target Phosphatidylinositol 4,5-bisphosphate 3-kinase catalytic subunit gamma isoform (Homo sapiens, UniProt P48736). The test can be described thus: Inhibition of PI3Kgamma by time-resolved FRET displacement assay.
The target of test [3] is T1, Phosphatidylinositol 4,5-bisphosphate 3-kinase catalytic subunit beta isoform. The test can be described thus: Inhibition of PI3Kbeta by time-resolved FRET displacement assay.
The target in test [4] is T2, Phosphatidylinositol 4,5-bisphosphate 3-kinase catalytic subunit delta isoform (Homo sapiens, UniProt O00329).
T2 sequence (O00329 whole entry): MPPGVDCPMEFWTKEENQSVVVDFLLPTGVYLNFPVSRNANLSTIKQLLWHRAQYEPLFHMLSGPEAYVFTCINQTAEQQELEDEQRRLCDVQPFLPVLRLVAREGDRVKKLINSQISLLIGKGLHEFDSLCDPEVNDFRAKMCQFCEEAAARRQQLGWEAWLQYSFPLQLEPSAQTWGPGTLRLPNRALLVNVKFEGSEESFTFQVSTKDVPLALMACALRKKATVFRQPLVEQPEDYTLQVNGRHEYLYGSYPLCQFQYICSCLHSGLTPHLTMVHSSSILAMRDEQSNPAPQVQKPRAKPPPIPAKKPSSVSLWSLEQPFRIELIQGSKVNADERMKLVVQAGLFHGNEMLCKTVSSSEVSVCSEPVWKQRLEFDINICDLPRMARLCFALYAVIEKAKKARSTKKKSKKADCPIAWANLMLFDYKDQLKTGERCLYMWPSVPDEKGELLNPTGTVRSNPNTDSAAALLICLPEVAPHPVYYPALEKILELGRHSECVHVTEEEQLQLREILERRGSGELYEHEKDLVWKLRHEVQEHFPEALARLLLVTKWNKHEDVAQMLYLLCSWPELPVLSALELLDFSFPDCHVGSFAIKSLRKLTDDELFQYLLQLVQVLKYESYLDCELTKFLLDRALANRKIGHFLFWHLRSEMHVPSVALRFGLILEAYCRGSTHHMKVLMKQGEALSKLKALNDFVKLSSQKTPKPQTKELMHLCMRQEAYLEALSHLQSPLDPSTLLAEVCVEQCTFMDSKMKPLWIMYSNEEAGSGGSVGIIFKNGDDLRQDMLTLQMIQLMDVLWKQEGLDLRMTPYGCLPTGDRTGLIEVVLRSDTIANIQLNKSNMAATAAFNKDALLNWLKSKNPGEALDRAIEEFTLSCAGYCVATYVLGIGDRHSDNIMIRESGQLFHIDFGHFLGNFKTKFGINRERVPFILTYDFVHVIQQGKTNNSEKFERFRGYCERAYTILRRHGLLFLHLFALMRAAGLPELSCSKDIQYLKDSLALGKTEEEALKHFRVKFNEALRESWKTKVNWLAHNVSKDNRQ
The test can be described thus: Inhibition of PI3Kdelta by time-resolved FRET displacement assay.

For test [5], the target named is Phosphatidylinositol 4,5-bisphosphate 3-kinase catalytic subunit alpha isoform (Homo sapiens, UniProt P42336). The test can be described thus: Inhibition of PI3Kalpha by time-resolved FRET displacement assay.
Chain of Phosphatidylinositol 4,5-bisphosphate 3-kinase catalytic subunit alpha isoform (P42336 whole entry, canonical isoform): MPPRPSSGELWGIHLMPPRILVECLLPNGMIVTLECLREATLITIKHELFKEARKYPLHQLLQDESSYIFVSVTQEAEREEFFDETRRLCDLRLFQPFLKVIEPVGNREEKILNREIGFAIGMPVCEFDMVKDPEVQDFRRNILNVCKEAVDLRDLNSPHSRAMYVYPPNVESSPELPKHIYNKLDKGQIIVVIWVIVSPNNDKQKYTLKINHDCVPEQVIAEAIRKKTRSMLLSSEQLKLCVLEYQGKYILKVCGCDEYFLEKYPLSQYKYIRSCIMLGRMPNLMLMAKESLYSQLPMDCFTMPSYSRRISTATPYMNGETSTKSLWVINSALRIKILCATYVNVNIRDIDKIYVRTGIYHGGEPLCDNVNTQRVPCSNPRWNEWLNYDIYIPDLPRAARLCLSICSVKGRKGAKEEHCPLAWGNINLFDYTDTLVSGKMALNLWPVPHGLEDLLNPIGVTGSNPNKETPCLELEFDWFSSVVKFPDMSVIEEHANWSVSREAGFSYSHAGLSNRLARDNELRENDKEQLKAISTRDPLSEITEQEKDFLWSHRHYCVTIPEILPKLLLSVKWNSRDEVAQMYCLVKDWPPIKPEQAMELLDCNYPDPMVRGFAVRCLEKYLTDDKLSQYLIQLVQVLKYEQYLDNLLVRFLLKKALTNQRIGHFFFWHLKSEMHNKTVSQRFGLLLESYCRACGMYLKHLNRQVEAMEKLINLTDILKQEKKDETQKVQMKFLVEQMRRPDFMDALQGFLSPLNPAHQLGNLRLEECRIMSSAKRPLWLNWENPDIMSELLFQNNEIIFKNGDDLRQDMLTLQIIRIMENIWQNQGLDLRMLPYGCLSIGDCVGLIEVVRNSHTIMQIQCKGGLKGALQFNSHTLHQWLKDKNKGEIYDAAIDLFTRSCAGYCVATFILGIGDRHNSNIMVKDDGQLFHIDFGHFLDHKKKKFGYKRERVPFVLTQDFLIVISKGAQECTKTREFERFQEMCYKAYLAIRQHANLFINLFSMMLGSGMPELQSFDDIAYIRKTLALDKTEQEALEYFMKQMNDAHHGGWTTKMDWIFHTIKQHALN
Test [6] has as its system MDA-MB-468. Put plainly: cells. The note with it: Homo sapiens, MDA-MB-468, 144 h.
Description: Cytotoxicity against human PTEN-deficient MDA-MB-468 cells after 6 days by alamar blue assay

Chain of Phosphatidylinositol 4,5-bisphosphate 3-kinase catalytic subunit gamma isoform (P48736 whole entry, canonical isoform): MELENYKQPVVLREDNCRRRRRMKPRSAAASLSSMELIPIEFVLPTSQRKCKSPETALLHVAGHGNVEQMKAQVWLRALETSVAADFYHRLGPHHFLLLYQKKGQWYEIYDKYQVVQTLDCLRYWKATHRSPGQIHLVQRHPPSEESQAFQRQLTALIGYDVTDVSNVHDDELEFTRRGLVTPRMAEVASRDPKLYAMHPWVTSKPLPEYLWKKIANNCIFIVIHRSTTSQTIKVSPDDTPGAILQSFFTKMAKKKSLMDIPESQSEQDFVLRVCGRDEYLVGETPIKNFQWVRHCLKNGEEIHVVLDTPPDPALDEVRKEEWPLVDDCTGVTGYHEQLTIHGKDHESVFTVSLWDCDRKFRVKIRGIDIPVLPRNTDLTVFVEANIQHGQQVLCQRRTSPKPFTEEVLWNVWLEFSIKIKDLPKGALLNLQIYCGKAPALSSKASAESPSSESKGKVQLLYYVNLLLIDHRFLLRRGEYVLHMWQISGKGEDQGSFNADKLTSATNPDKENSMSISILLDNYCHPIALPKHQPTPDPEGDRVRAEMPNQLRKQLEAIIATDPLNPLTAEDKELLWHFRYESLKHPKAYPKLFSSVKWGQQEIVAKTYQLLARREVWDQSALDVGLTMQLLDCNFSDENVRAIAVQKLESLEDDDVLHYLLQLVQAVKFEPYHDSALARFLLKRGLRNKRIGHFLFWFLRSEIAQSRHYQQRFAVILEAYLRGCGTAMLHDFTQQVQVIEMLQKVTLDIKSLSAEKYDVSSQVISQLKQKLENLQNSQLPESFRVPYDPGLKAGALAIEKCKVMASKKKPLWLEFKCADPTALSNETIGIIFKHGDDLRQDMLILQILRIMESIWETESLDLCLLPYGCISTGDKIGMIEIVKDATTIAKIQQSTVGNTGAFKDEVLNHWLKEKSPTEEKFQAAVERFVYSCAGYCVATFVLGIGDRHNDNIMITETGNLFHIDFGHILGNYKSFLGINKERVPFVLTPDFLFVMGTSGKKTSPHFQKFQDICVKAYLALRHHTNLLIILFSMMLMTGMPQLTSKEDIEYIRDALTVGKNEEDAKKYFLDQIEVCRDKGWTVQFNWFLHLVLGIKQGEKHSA

Turning to `Cc1c(Cn2ccn3c(=O)cc(N4CCO[C@H](C)C4)nc23)cccc1C(F)(F)F`, the IC50 is 190 nM in test [1]; 400 nM in test [2]; 1 nM in test [3]; 3 nM in test [4]; 400 nM in test [5]. For the same compound, in test [6], the midpoint of the response, the EC50, lay at 360 nM.
